Where two headings read alike, the source gives them in different places.
What was measured:
GSK3β = GSK3β (Homo sapiens, UniProt P49841); assay: GSK3β kinase assay (Caliper LabChip3000, fluoresceinated peptide substrate); format: biochemical
Procedure: (§1) The kinase assay was performed in V-bottom 384-well plates. […] The reaction was incubated at room temperature for 20 hours and terminated by adding 45 μl of 35 mM EDTA to each sample. The reaction mixture was analyzed on the Caliper LabChip3000 (Caliper, Hopkinton, Mass.) by electrophoretic separation of the unphosphorylated substrate and phosphorylated product. […] Compounds were dissolved at 10 mM in dimethylsulfoxide (DMSO) and evaluated at eleven concentrations. IC50 values were derived by non-linear regression analysis.

GSK3α = GSK3α (Homo sapiens, UniProt P49840); assay: biochemical
Procedure: as §1

pTau = pTau assay (method not described); format: cell-based
[1] = first value of the cell, 250 pM enzyme, 20 uM ATP, 20 hours at room temperature, read-out: GSK3β/α (nM): GSK3β IC50
[2] = second value of the cell, 250 pM enzyme, 20 uM ATP, 20 hours at room temperature, read-out: GSK3β/α (nM): GSK3α IC50
[3] = read-out: GSK3β/α (nM): GSK3β IC50, first value of the cell, 250 pM enzyme, 20 uM ATP, 20 hours at room temperature
[4] = read-out: GSK3β/α (nM): GSK3α IC50, second value of the cell, 250 pM enzyme, 20 uM ATP, 20 hours at room temperature

Sequence of GSK3β (P49841 whole entry, species assumed): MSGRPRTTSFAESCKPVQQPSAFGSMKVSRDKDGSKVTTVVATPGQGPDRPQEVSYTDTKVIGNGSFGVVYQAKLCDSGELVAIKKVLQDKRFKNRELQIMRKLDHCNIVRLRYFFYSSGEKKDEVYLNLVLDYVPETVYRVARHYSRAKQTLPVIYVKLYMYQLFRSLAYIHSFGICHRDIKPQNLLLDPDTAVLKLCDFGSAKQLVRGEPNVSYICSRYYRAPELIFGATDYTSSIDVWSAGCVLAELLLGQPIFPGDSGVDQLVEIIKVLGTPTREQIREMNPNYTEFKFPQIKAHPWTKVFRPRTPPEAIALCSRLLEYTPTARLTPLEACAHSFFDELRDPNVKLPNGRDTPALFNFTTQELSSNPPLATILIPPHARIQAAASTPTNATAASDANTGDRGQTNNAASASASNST
Sequence of GSK3α (P49840 whole entry, species assumed): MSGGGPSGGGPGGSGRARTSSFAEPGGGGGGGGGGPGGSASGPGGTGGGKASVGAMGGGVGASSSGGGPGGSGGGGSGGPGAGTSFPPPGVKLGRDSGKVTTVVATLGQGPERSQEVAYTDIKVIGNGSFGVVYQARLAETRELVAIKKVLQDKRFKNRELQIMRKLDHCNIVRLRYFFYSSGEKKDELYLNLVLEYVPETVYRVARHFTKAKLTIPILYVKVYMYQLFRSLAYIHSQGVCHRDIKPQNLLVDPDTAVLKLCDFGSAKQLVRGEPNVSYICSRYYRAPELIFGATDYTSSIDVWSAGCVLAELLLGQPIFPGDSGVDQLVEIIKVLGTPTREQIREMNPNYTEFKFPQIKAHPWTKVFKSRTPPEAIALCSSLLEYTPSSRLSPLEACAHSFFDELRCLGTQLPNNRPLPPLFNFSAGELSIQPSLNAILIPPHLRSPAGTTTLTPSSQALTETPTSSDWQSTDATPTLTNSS

## CC1CN(c2ccncc2NC(=O)c2ccnc(NC(=O)C3CC3)c2)CCO1 (racemic) [Example 46, 2-(Cyclopropanecarboxamido)-N-(4-(2-methylmorpholino)pyridin-3-yl)isonicotinamide]
GSK3β
  IC50: 0.54 nM
GSK3α
  IC50: 0.37 nM
pTau; read-out: pTau (nM)
  IC50: 57 nM

## O=C(Nc1cnccc1-c1ccccc1)c1ccnc(NC(=O)[C@@H]2C[C@H]2c2ccccc2)c1 (relative stereo) [Example 99, 2-((Trans)-2-phenylcyclopropanecarboxamido)-N-(4-phenylpyridin-3-yl)isonicotinamide]
GSK3β; [1]
  IC50: 1.8 nM
GSK3α; [2]
  IC50: 24 nM
pTau; read-out: pTau
  IC50: 4500 nM

## O=C(Nc1cnccc1-c1ccccc1)c1ccnc(NC(=O)[C@@H]2CC[C@@H](O)C2)c1 (relative stereo) [Example 230, 2-((1,3-Trans)-3-hydroxycyclopentanecarboxamido)-N-(4-phenylpyridin-3-yl)isonicotinamide]
GSK3β
  IC50: 2.5 nM
GSK3α
  IC50: 0.68 nM
pTau; read-out: pTau (nM)
  IC50: 73 nM

## C[C@@H]1CN(c2ccncc2NC(=O)c2ccnc(NC(=O)C3CC3)c2)CCO1 (single isomer, unassigned) [Example 77]
GSK3β
  IC50: 8.8 nM
GSK3α
  IC50: 2.7 nM
pTau; read-out: pTau (nM)
  IC50: 220 nM

## C[C@H]1CN(c2ccncc2NC(=O)c2ccnc(NC(=O)C3CC3)c2)CCO1 (single isomer, unassigned) [Example 78]
GSK3β
  IC50: 0.99 nM
GSK3α
  IC50: 0.35 nM
pTau; read-out: pTau (nM)
  IC50: 18 nM

## O=C(Nc1cnccc1-c1ccc(Cl)cc1)c1ccnc(NC(=O)C2CC(F)C2)c1 (single isomer, unassigned) [Example 222, N-(4-(4-chlorophenyl)pyridin-3-yl)-2-((1,3-trans)-3-fluorocyclobutanecarboxamido)isonicotinamide]
GSK3β; [3]
  IC50: 1.7 nM
GSK3α; [4]
  IC50: 1.3 nM
pTau; read-out: pTau
  IC50: 37 nM

## O=C(Nc1cnccc1-c1ccc(Cl)cc1)c1ccnc(NC(=O)C2CC(F)C2)c1 (single isomer, unassigned) [Example 223, N-(4-(4-chlorophenyl)pyridin-3-yl)-2-((1,3-cis)-3-fluorocyclobutanecarboxamido)isonicotinamide]
GSK3β; [3]
  IC50: 6.9 nM
GSK3α; [4]
  IC50: 3.1 nM
pTau; read-out: pTau
  IC50: 150 nM

## CC(=O)Nc1ccc(NC(=O)c2ccnc(NC(=O)C3CC3)c2)cn1 [Example 4, N-(6-Acetamidopyridin-3-yl)-2-(cyclopropanecarboxamido)isonicotinamide]
GSK3β; [1]
  IC50: 370 nM
GSK3α; [2]
  IC50: 180 nM
pTau; read-out: pTau
  IC50: 7200 nM

## O=C(Nc1cnc2ccccc2c1)c1ccnc(NC(=O)C2CC2)c1 [Example 5, 2-(Cyclopropanecarboxamido)-N-(quinolin-3-yl)isonicotinamide]
GSK3β; [1]
  IC50: 570 nM
GSK3α; [2]
  IC50: 230 nM
pTau; read-out: pTau
  IC50: ≥ 10000 nM

## O=C(Nc1cncc2ccccc12)c1ccnc(NC(=O)C2CC2)c1 [Example 6, 2-(Cyclopropanecarboxamido)-N-(isoquinolin-4-yl)isonicotinamide]
GSK3β; [1]
  IC50: 7.2 nM
GSK3α; [2]
  IC50: 2.7 nM
pTau; read-out: pTau
  IC50: 190 nM

## COc1ccc(NC(=O)c2ccnc(NC(=O)C3CC3)c2)cn1 [Example 7, 2-(Cyclopropanecarboxamido)-N-(6-methoxypyridin-3-yl)isonicotinamide]
GSK3α; [2]
  IC50: 1000 nM
pTau; read-out: pTau
  IC50: ≥ 10000 nM

## Cc1cc(NC(=O)c2ccnc(NC(=O)C3CC3)c2)cnc1F [Example 8, 2-(Cyclopropanecarboxamido)-N-(6-fluoro-5-methylpyridin-3-yl)isonicotinamide]
GSK3β; [1]
  IC50: 48 nM
GSK3α; [2]
  IC50: 24 nM
pTau; read-out: pTau
  IC50: 1800 nM

## Cc1ccncc1NC(=O)c1ccnc(NC(=O)C2CC2)c1 [Example 9, 2-(Cyclopropanecarboxamido)-N-(4-methylpyridin-3-yl)isonicotinamide]
GSK3β
  IC50: 30 nM
GSK3α; [2]
  IC50: 22 nM
pTau; read-out: pTau
  IC50: 1200 nM

## O=C(Nc1ccc(-c2ccccc2)nc1)c1ccnc(NC(=O)C2CC2)c1 [Example 10, 2-(Cyclopropanecarboxamido)-N-(6-phenylpyridin-3-yl)isonicotinamide]
GSK3β; [1]
  IC50: 16 nM
GSK3α; [2]
  IC50: 64 nM
pTau; read-out: pTau
  IC50: 1800 nM

## Cc1ccc(NC(=O)c2ccnc(NC(=O)C3CC3)c2)cn1 [Example 11, 2-(Cyclopropanecarboxamido)-N-(6-methylpyridin-3-yl)isonicotinamide]
GSK3β; [1]
  IC50: 30 nM
GSK3α; [2]
  IC50: 15 nM
pTau; read-out: pTau
  IC50: 2200 nM

## O=C(Nc1cncc(F)c1)c1ccnc(NC(=O)C2CC2)c1 [Example 12, 2-(Cyclopropanecarboxamido)-N-(5-fluoropyridin-3-yl)isonicotinamide]
GSK3β; [1]
  IC50: 33 nM
GSK3α; [2]
  IC50: 16 nM
pTau; read-out: pTau
  IC50: 1400 nM

## COc1cncc(NC(=O)c2ccnc(NC(=O)C3CC3)c2)c1 [Example 13, 2-(Cyclopropanecarboxamido)-N-(5-methoxypyridin-3-yl)isonicotinamide]
GSK3β; [1]
  IC50: 13 nM
GSK3α; [2]
  IC50: 7.3 nM
pTau; read-out: pTau
  IC50: 550 nM

## CC(=O)c1ccncc1NC(=O)c1ccnc(NC(=O)C2CC2)c1 [Example 14, N-(4-acetylpyridin-3-yl)-2-(cyclopropanecarboxamido)isonicotinamide]
GSK3β
  IC50: 0.85 nM
GSK3α; [2]
  IC50: 0.54 nM
pTau; read-out: pTau
  IC50: 76 nM

## O=C(Nc1cncc(Br)c1)c1ccnc(NC(=O)C2CC2)c1 [Example 15, 2-(Cyclopropanecarboxamido)-N-(5-bromopyridin-3-yl)isonicotinamide]
GSK3β; [1]
  IC50: 16 nM
GSK3α; [2]
  IC50: 11 nM
pTau; read-out: pTau
  IC50: 610 nM

## CC(C)(O)c1ccncc1NC(=O)c1ccnc(NC(=O)C2CC2)c1 [Example 16, 2-(Cyclopropanecarboxamido)-N-(4-(2-hydroxypropan-2-yl)pyridin-3-yl)isonicotinamide]
GSK3β
  IC50: 0.11 nM
GSK3α
  IC50: 0.2 nM
pTau; read-out: pTau (nM)
  IC50: 2.8 nM

## CC(O)c1ccncc1NC(=O)c1ccnc(NC(=O)C2CC2)c1 (stereo not drawn) [Example 17, 2-(Cyclopropanecarboxamido)-N-(4-(1-hydroxyethyl)pyridin-3-yl)isonicotinamide]
GSK3β
  IC50: 0.25 nM
GSK3α; [2]
  IC50: 1.4 nM
pTau; read-out: pTau
  IC50: 35 nM

## O=C(Nc1cnccc1-c1ccsc1)c1ccnc(NC(=O)C2CC2)c1 [Example 31, 2-(Cyclopropanecarboxamido)-N-(4-(thiophen-3-yl)pyridin-3-yl)isonicotinamide]
GSK3β; [1]
  IC50: 4.4 nM
pTau; read-out: pTau
  IC50: 200 nM

## O=C(Nc1cnccc1-c1cccnc1)c1ccnc(NC(=O)C2CC2)c1 [Example 32, N-([3,4′-bipyridin]-3′-yl)-2-(cyclopropanecarboxamido)isonicotinamide]
GSK3β; [1]
  IC50: 160 nM
pTau; read-out: pTau
  IC50: 3200 nM

## O=C(Nc1cnccc1-c1ccncc1)c1ccnc(NC(=O)C2CC2)c1 [Example 33, N-([4,4′-bipyridin]-3-yl)-2-(cyclopropanecarboxamido)isonicotinamide]
GSK3β; [1]
  IC50: 28 nM
pTau; read-out: pTau
  IC50: 670 nM

## O=C(Nc1cnccc1C1CCCC1)c1ccnc(NC(=O)C2CC2)c1 [Example 36, N-(4-cyclopentylpyridin-3-yl)-2-(cyclopropanecarboxamido)isonicotinamide]
GSK3β
  IC50: 41 nM
pTau; read-out: pTau
  IC50: 800 nM

## O=C(Nc1cnccc1C1CCCCC1)c1ccnc(NC(=O)C2CC2)c1 [Example 37, N-(4-cyclohexylpyridin-3-yl)-2-(cyclopropanecarboxamido)isonicotinamide]
GSK3β
  IC50: 120 nM
pTau; read-out: pTau
  IC50: 1200 nM

## C=C(C)c1ccncc1NC(=O)c1ccnc(NC(=O)C2CC2)c1 [Example 38, 2-(Cyclopropanecarboxamido)-N-(4-(prop-1-en-2-yl)pyridin-3-yl)isonicotinamide]
GSK3β
  IC50: 4.4 nM
pTau; read-out: pTau
  IC50: 80 nM

## CC(C)c1ccncc1NC(=O)c1ccnc(NC(=O)C2CC2)c1 [Example 39, 2-(Cyclopropanecarboxamido)-N-(4-isopropylpyridine-3-yl)isonicotinamide]
GSK3β
  IC50: 23 nM
pTau; read-out: pTau
  IC50: 470 nM

## Cn1cnc(NC(=O)c2ccnc(NC(=O)C3CC3)c2)c1 [Example 174, 2-(cyclopropanecarboxamido)-N-(1-methyl-1H-imidazol-4-yl)isonicotinamide]
GSK3α; [2]
  IC50: 1200 nM
pTau; read-out: pTau
  IC50: ≥ 10000 nM

## O=C(Nc1cnc(-c2ccccn2)s1)c1ccnc(NC(=O)C2CC2)c1 [Example 176, 2-(cyclopropanecarboxamido)-N-(2-(pyridin-2-yl)thiazol-5-yl)isonicotinamide]
GSK3β; [1]
  IC50: 650 nM
pTau; read-out: pTau
  IC50: 5500 nM

## Cc1ncc(NC(=O)c2ccnc(NC(=O)C3CC3)c2)s1 [Example 177, 2-(cyclopropanecarboxamido)-N-(2-methylthiazol-5-yl)isonicotinamide]
GSK3β; [1]
  IC50: 61 nM
pTau; read-out: pTau
  IC50: 3900 nM

## O=C(Nc1cnc(-c2ccccc2)s1)c1ccnc(NC(=O)C2CC2)c1 [Example 181, 2-(cyclopropanecarboxamido)-N-(2-phenylthiazol-5-yl)isonicotinamide]
pTau; read-out: pTau
  IC50: 5500 nM

## O=C(Nc1cncc(-c2ccccc2)c1)c1ccnc(NC(=O)C2CCC2)c1 [Example 213, 2-(cyclobutanecarboxamido)-N-(5-phenylpyridin-3-yl)isonicotinamide]
GSK3α; [2]
  IC50: 2.8 nM
pTau; read-out: pTau
  IC50: 1600 nM

## O=C(Nc1cnccc1-c1ccc(Cl)cc1)c1ccnc(NC(=O)C2CC(Cl)C2)c1 (stereo not drawn) [Example 224, N-(4-(4-chlorophenyl)pyridin-3-yl)-2-((1,3-trans)-3-cholorocyclobutanecarboxamido)isonicotinamide]
pTau; read-out: pTau
  IC50: 15 nM

## O=C(Nc1cnccc1-c1ccc(Cl)cc1)c1ccnc(NC(=O)C2CC(Cl)C2)c1 (stereo not drawn) [Example 225, N-(4-(4-chlorophenyl)pyridin-3-yl)-2-((1,3-cis)-3-cholorocyclobutanecarboxamido)isonicotinamide]
pTau; read-out: pTau
  IC50: 43 nM

Source: patent US9809573B2, “Substituted pyridine derivatives useful as GSK-3 inhibitors” (priority 2013, dated 2017)
